Like-named read-outs stand apart in the source and are kept apart here.
Columns and labels:
Format in all cases: cell-based
[1] = system: Aspergillus niger (A. niger—ATCC 16404); assay: Synergy test, microtiter plate high resolution MIC assay, PDB medium, mold; details: for SI / Qb: A. niger 16404 - PDB (10 days), A = MIT; for Qb: B alone where Qa = 0; for MIC: Aspergillus niger, ATCC16404, 72 h
Text: (§1) One measure of synergism is the industrially accepted method described by Kull, F. C.; Eisman, P. C.; Sylwestrowicz, H. D. and Mayer, R. L., in Applied Microbiology 9:538-541 (1961), using the ratio determined by the formula: Qa/QA+Qb/QB=Synergy Index(“SI”) wherein: • QA=concentration of compound A (first component) in ppm, acting alone, which produced an end point (MIC of Compound A). • Qa=concentration of compound A in ppm, in the mixture, which produced an end point. • QB=concentration of compound B (second component) in ppm, acting alone, which produced an end point (MIC of Compound B). • Qb=concentration of compound B in ppm, in the mixture, which produced an end point.
(§2) When the sum of Qa/QA and Qb/QB is greater than one, antagonism is indicated. […] The lower the SI, the greater is the synergy shown by that particular mixture. The minimum inhibitory concentration (MIC) of a microbicide is the lowest concentration tested under a specific set of conditions that prevents the growth of the tested microorganisms.
(§3) Synergy tests were conducted using standard microtiter plate assays with media designed for optimal growth of the test microorganism. Minimal salt medium supplemented with 0.2% glucose and 0.1% yeast extract (M9GY medium) was used for testing bacteria; Potato Dextrose Broth (PDB medium) was used for testing yeast and mold. In this method, a wide range of combinations of microbicides and other personal care raw materials was tested by conducting high resolution MIC assays in the presence of various concentrations of CMIT/MIT, MIT, or BIT. High resolution MICs were determined by adding varying amounts of microbicide to one column of a microtitre plate and doing subsequent […] dilutions using an automated liquid handling system to obtain a series of endpoints ranging from 2 ppm to 10,000 ppm active ingredient.
(§4) The synergy of the combinations of the present invention was determined against a bacterium, Escherichia coli (E. coli—ATCC #8739), a yeast, Candida albicans (C. albicans—ATCC 10231), and a mold, Aspergillus niger (A. niger—ATCC 16404). The bacteria were used at a concentration of about 5×10^6 bacteria per mL and the yeast and mold at 5×10^5 fungi per mL. These microorganisms are representative of natural contaminants in many consumer and industrial applications. […] (yeast and mold) or 30° C. (bacteria).

[2] = system: Escherichia coli (E. coli—ATCC #8739); assay: Synergy test, microtiter plate high resolution MIC assay, M9GY medium, bacterium; details: for SI / Qb: E. coli 8739 - M9GY (1 day), A = MIT; for Qb: B alone where Qa = 0; for MIC: Escherichia coli, ATCC8739, 24 h
Text: as §1, §2, §3, §4

[3] = system: Candida albicans (C. albicans—ATCC 10231); assay: Synergy test, microtiter plate high resolution MIC assay, PDB medium, yeast; details: for SI / Qb: C. albicans 10231 - PDB (6 days), A = MIT; for Qb: B alone where Qa = 0; for MIC: Candida albicans
Text: as §1, §2, §3, §4

CCCCCCCCCC(=O)OCC(O)CO (stereo not drawn) [Glyceryl caprate]
SI (synergy index) ([1]; A. niger 16404, PDB, 3 days): 1.00 | Synergy Index (SI) = Qa/QA+Qb/QB ([1]; A. niger 16404, PDB, 3 days): 1.00 | SI ([1]; B = Glyceryl caprate): 1.00 | Qb ([1]; B = Glyceryl caprate): 2000 ppm | MIC ([1]; A. niger 16404, PDB, 3 days, 25° C., read-out: MIC of the component acting alone (QA or QB)): 2000 µg/mL | MIC ([1]; A. niger 16404, PDB, 3 days, read-out: MIC of the component acting alone (Qa or Qb with the other component at 0)): 2000 µg/mL | SI (synergy index) ([2]; E. coli 8739, M9GY, 1 day): 1.00 | Synergy Index (SI) = Qa/QA+Qb/QB ([2]; E. coli 8739, M9GY, 1 day): 1.00 | SI ([2]; B = Glyceryl caprate): 1.00 | Qb ([2]; B = Glyceryl caprate): 20000 ppm | MIC ([2]; E. coli 8739, M9GY, 1 day, 30° C., read-out: MIC of the component acting alone (QA or QB)): 20000 µg/mL | MIC ([2]; E. coli 8739, M9GY, 1 day, read-out: MIC of the component acting alone (Qa or Qb with the other component at 0)): 20000 µg/mL | Synergy Index (SI) = Qa/QA+Qb/QB ([3]; C. albicans 10231, PDB, 1 day): 1.00 | SI (synergy index) ([3]; C. albicans 10231, PDB, 6 days): 1.00 | SI ([3]; B = Glyceryl caprate): 1.00 | Qb ([3]; B = Glyceryl caprate): 2000 ppm | MIC ([3]; ATCC10231, 24 h, C. albicans 10231, PDB, 1 day, 25° C., read-out: MIC of the component acting alone (QA or QB)): 2000 µg/mL | MIC ([3]; ATCC10231, 144 h, C. albicans 10231, PDB, 6 days, read-out: MIC of the component acting alone (Qa or Qb with the other component at 0)): 2000 µg/mL

CCCCCCCCCCCC(=O)N[C@@H](CCCNC(=N)N)C(=O)OCC.Cl [Lauric arginate, N-α-lauoryl-L-arginine ethyl ester monohydrochloride]
MIC of the component acting alone (Qa or Qb with the other component at 0) ([1]; A. niger 16404, PDB, 3 days): 2000 ppm | SI (synergy index) ([1]; A. niger 16404, PDB, 3 days): 1.00 | Synergy Index (SI) = Qa/QA+Qb/QB ([1]; A. niger 16404, PDB, 4 days): 1.00 | MIC of the component acting alone (QA or QB) ([1]; A. niger 16404, PDB, 4 days, 25° C.): 2000 ppm | SI ([1]; B = Lauric arginate): 1.00 | Qb ([1]; B = Lauric arginate): 2000 ppm | MIC of the component acting alone (Qa or Qb with the other component at 0) ([2]; E. coli 8739, M9GY, 1 day): 300 ppm | SI (synergy index) ([2]; E. coli 8739, M9GY, 1 day): 1.00 | Synergy Index (SI) = Qa/QA+Qb/QB ([2]; E. coli 8739, M9GY, 1 day): 1.00 | MIC of the component acting alone (QA or QB) ([2]; E. coli 8739, M9GY, 1 day, 30° C.): 200 ppm | SI ([2]; B = Lauric arginate): 1.00 | Qb ([2]; B = Lauric arginate): 300 ppm | Synergy Index (SI) = Qa/QA+Qb/QB ([3]; C. albicans 10231, PDB, 1 day): 1.00 | MIC of the component acting alone (QA or QB) ([3]; C. albicans 10231, PDB, 1 day, 25° C.): 800 ppm | MIC of the component acting alone (Qa or Qb with the other component at 0) ([3]; C. albicans 10231, PDB, 6 days): 200 ppm | SI (synergy index) ([3]; C. albicans 10231, PDB, 6 days): 1.00 | SI ([3]; B = Lauric arginate): 1.00 | Qb ([3]; B = Lauric arginate): 800 ppm
